The source of these data is patent publication US4908365A, “Benzhydryloxyethylpiperazine derivatives, processes for their preparation and pharmaceutical compositions in which they are present” (priority 1986, dated 1990).

Where two headings read alike, the source gives them in different places.

The nature of data set [1]: in vivo. The following applies: mouse, ip.
The test system of data set [2] is peritoneal pain caused by phenylbenzoquinone (PBQ). The experiment in a line: Peripheral analgesic activity (phenylbenzoquinone peritoneal pain). In kind it is in vivo, mice. The following applies: Mus musculus, 0.5 h, read-out: Peripheral analgesic activity ED50. An excerpt: E-Peripheral analgesic activity
A peritoneal pain is caused in mice by the intraperitoneal injection of phenylbenzoquinone (PBQ). The test tries to measure the decrease in the pain syndrome, characterized by an abdominal twisting movement, which is caused by injecting the test product thirty minutes before the administration of PBQ.

Data set [3] concerns histamine. The experiment in a line: Bronchospasm by inhalation of a histamine solution. The following applies: for ED50: Cavia porcellus, 0.5 h, read-out: Bronchospasm ED50. Type of data set: in vivo, guinea-pigs. Here is the method:
F-Bronchospasm by inhalation of a histamine solution
Guinea-pigs are placed in a closed chamber into which histamine is introduced as an aerosol, and only those which show very distinct signs of asphyxia within four minutes are selected.
The substance to be studied is administered to groups of guinea-pigs thirty minutes before a further period in the chamber in order to check the resistance to histamine. A guinea-pig is considered to be protected if it resists the histamine aerosol for ten minutes without showing signs of asphyxia.
A 50% effective dose is calculated from the results obtained.

The test system of data set [4] is histamine. The experiment in a line: animal or person. Type of data set: in vivo, guinea-pigs. As to conditions: Cavia porcellus, 0.5 h, read-out: Histaminic shock ED50.
For data set [5], the system named is sleep induced by pentobarbital. The experiment in a line: animal or person. In kind it is in vivo, mice. The following applies: ip.
Data set [6] relates to mice. Briefly: Muscle-relaxing action (traction test). Type of data set: in vivo. The following applies: Mus musculus, ip, read-out: Muscle-relaxing action - Traction test ED50. An excerpt:
C-Muscle-relaxing action (traction test)
This test assesses the presence or absence of redressments in a mouse brought up to a horizontal wire with its front paws.
The number of mice which are unable to grip the wire with one of their back paws within five seconds are noted.
(§1) A 50% effective dose can be calculated from the results obtained.

The subject of data set [7] is mice. Briefly: Study of the spontaneous motility (motor activity), photoelectric actimeter. Type of data set: in vivo. The following applies: mouse, at 25 mg.kg^-1 i.p.
In data set [8] the test system is mice. Briefly: Exploration behavior (hole-board). Type of data set: in vivo. The following applies: Mus musculus, ip, 0.5 h, read-out: Exploration behavior ED50.
From the text: Thirty minutes after the intraperitoneal administration of the derivatives according to the invention, each mouse is placed on an automated hole-board for five minutes and the number of holes explored is noted every minute.
as §1

On to `CS(=O)(=O)O.CS(=O)(=O)O.O=C1c2ccccc2C(=O)N1CCN1CCN(CCOC(c2ccccc2)c2ccccc2)CC1` [Derivative 2, 1-[2-(Benzhydryloxy)ethyl]-4-[2-(phthalimido)-ethyl]piperazine dimethanesulfonate], for which the LD50 (commonly the dose expected to kill half of the subjects tested) in data set [1] is 211 mg/kg. The ED50 in data set [2] (ip) is 3.12 mg/kg; in data set [3] (ip) it was 3.67 mg/kg; in data set [4] (ip), 2.03 mg/kg.

For `O=C1c2ccccc2C(=O)N1CCCCN1CCN(CCOC(c2ccccc2)c2ccccc2)CC1` [Derivative 19], the 50% lethal dose (LD50) in data set [1] is 133 mg/kg. Also, the ED50 in data set [2] (ip) amounted to 1.56 mg/kg; in data set [3] (po) it was 5.34 mg/kg; in data set [4] (po), 2.2 mg/kg.

Compound `O=C1CCC(=O)N1CCN1CCN(CCOC(c2ccccc2)c2ccccc2)CC1` [Derivative 22] had an LD50 in data set [1] of 146 mg/kg. Further, the values for the ED50 in data set [2] (po), in data set [3] (ip) and in data set [4] (ip) were 35 mg/kg, 3.96 mg/kg and 3.25 mg/kg, respectively.

`O=c1n(CCN2CCN(CCOC(c3ccccc3)c3ccccc3)CC2)c2ccccc2n1Cc1ccccc1` [Derivative 32]: in data set [1], the LD50 stood at 400 mg/kg. In data set [3] (guinea pig, in vivo, po), this compound registered a Bronchospasm of 33%. Also, the ED50 in data set [4] (po) came to 2.3 mg/kg.

On to `O=C(NCCN1CCN(CCOC(c2ccccc2)c2ccccc2)CC1)c1ccccc1[N+](=O)[O-]` [Derivative 49], for which, in data set [1], the LD50 was 131 mg/kg. For the same compound, the ED50 in data set [2] (sc) was determined as 2.6 mg/kg; in data set [3] (po) it was 3.12 mg/kg. For the same compound, the Interaction with pentobarbital entry in data set [5] (mouse, in vivo) is recorded as “no interaction”.

`CC(C)(C)c1ccc(C(O)CCCN2CCC(C(O)(c3ccccc3)c3ccccc3)CC2)cc1` (stereo not shown) [Terfenadine, reference compound] came in with an LD50 in data set [1] of 100 mg/kg. In addition, the ED50 in data set [2] (ip) came to 3.1 mg/kg; in data set [6], 31 mg/kg; in data set [8], 37 mg/kg; in data set [5] (Mus musculus, read-out: Interaction with pentobarbital ED50) it was 25 mg/kg. Also, the Motor activity entry in data set [7] was “Significant decrease”.
